Consider 15 molecules from article PMC11510214, “Novel Dual Acetyl- and Butyrylcholinesterase Inhibitors Based on the Pyridyl–Pyridazine Moiety for the Potential Treatment of Alzheimer’s Disease” (Pharmaceuticals, 2024).

Structures are written as SMILES. Several values for one entry are separate records, joined by “and”; a condition that tells them apart may be missing. Identical values can stand only once.

Assay [1] deals with T1, acetylcholinesterase (AChE) (Homo sapiens, UniProt P22303). Nature of the assay: biochemical. The settings on record: for IC50: IC50 against acetylcholinesterase (AChE), human enzyme, dose response 0.01 to 100 µM; for inhibition at 0.01 µM / inhibition at 0.1 µM / inhibition at 1 µM / inhibition at 10 µM / inhibition at 100 µM: read-out: % inhibition AChE.
Description: (§1) Experimental procedures were followed as instructed by the kits’ manufacturer. The enzymes used in the assays were of human origin. IC50 values of the compounds were calculated from the obtained dose response curve, and selectivity index was calculated as a ratio between (AChE/BuChE) IC50.
For assay [2], the target named is T1, acetylcholinesterase (AChE). The following applies: for Selectivity Index (AChE/BuChE): ratio between (AChE/BuChE) IC50; for IC50 against acetylcholinesterase (AChE): human enzyme, dose response 0.01 to 100 µM.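 On all read-outs here: Kit-based enzyme assay using enzymes of human origin.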
Description: as §1
Assay [3] has as its target butyrylcholinesterase (BuChE) (Homo sapiens, UniProt P06276). Nature of the assay: biochemical. The following applies: for IC50: IC50 against butyrylcholinesterase (BuChE), human enzyme, dose response 0.01 to 100 µM; for inhibition at 0.01 µM / inhibition at 0.1 µM / inhibition at 1 µM / inhibition at 10 µM / inhibition at 100 µM: read-out: % inhibition BuChE.
Description: as §1
A further assay relates to AChE. Also on record: method as in PMID 23466605, PMID 10052979, PMID 29775949, PMID 31675671. The following applies: Figure 1; ref [37],[30],[34],[38],[36]; read-out: AChE inhibition IC50; cited from earlier work.

T1 sequence (P22303 32-614): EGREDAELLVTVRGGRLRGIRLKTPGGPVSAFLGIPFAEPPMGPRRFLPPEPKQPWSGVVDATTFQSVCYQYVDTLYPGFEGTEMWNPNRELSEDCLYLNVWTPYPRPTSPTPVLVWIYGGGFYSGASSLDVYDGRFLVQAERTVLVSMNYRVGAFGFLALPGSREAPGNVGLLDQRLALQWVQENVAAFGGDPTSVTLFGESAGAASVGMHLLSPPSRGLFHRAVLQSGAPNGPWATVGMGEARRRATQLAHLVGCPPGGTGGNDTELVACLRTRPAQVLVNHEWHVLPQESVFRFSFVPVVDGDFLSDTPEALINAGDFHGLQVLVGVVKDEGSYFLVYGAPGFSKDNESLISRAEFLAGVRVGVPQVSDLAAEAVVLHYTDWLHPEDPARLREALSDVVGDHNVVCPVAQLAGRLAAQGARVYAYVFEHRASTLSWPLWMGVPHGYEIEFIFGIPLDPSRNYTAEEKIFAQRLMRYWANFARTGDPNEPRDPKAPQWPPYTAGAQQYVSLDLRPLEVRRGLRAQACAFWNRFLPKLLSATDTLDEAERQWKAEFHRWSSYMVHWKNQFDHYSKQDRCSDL
butyrylcholinesterase (BuChE), sequence (P06276 29-602): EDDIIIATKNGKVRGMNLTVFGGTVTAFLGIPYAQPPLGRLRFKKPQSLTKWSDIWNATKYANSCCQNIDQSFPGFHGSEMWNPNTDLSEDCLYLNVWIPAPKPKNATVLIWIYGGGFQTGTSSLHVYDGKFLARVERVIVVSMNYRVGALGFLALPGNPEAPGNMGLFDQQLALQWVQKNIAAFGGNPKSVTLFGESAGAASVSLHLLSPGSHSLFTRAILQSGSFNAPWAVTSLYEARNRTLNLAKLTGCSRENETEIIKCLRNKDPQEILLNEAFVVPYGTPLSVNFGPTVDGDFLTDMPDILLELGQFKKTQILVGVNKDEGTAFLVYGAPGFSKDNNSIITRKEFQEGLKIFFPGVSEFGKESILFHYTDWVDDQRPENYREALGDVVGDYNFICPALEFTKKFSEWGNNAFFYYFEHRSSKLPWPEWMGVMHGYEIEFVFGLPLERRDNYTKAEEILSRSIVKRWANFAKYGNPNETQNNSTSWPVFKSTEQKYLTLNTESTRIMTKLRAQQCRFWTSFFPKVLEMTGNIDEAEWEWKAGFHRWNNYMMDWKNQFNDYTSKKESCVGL

Broadly, the IC50 is the concentration that gives 50% inhibition. By inhibition is commonly meant the drop in the measured response relative to a control, in per cent. In the case of `C#CCSc1ccc(-c2ccccn2)nn1` [Compound 1, 3-(Prop-2-yn-1-ylthio)-6-(pyridin-2-yl)pyridazine], in assay [1], the IC50 was found to be 11.5 ± 0.48 µM, the inhibition at 0.01 µM was 6.1%, the inhibition at 0.1 µM was 23% and the inhibition at 1 µM is 51%. Further, in assay [1], the inhibition at 10 µM stood at 74% and the inhibition at 100 µM is 89%. Besides, the “Selectivity Index (AChE/BuChE)” value in assay [2] is 2.64. Further, in assay [3], 4.37 ± 0.14 µM corresponded to half-maximal inhibition (IC50), the inhibition at 0.01 µM worked out at 8.7%, the inhibition at 0.1 µM amounted to 19% and the inhibition at 1 µM came to 27%. Further, in assay [3], the inhibition at 10 µM was 54% and the inhibition at 100 µM stood at 83%.
As to `OC[C@H]1O[C@@H](n2cc(CSc3ccc(-c4ccccn4)nn3)nn2)[C@H](O)[C@@H](O)[C@@H]1O` [Compound 7, (2R,3S,4S,5R,6R)-2-(Hydroxymethyl)-6-(4-(((6-(pyridin-2-yl)pyridazin-3-yl)thio)methyl)-1H-1,2,3-triazol-1-yl)tetrahydro-2H-pyran-3,4,5-triol], in assay [1], half-maximal inhibition (IC50) required 3.14 ± 0.13 µM, the inhibition at 0.01 µM worked out at 14%, the inhibition at 0.1 µM was found to be 38% and the inhibition at 1 µM was 62%. Further, in assay [1], the inhibition at 10 µM was determined as 80% and the inhibition at 100 µM amounted to 92%. In assay [2], the “IC50 against acetylcholinesterase (AChE)” value is on record as “moderate inhibition” and the “Selectivity Index (AChE/BuChE)” value is 0.39. Also, in assay [3], half-maximal inhibition (IC50) was put at 7.9 ± 0.26 µM, the inhibition at 0.01 µM came to 7.8%, the inhibition at 0.1 µM came out at 13% and the inhibition at 1 µM is 23%. Moreover, in assay [3], the inhibition at 10 µM was 48% and the inhibition at 100 µM is 79%.
With `CC(=O)OC[C@H]1O[C@@H](n2cc(CSc3ccc(-c4ccccn4)nn3)nn2)[C@H](OC(C)=O)[C@@H](OC(C)=O)[C@H]1OC(C)=O` [Compound 4, (2R,3S,4S,5R,6R)-2-(Acetoxymethyl)-6-(4-(((6-(pyridin-2-yl)pyridazin-3-yl)thio)methyl)-1H-1,2,3-triazol-1-yl)tetrahydro-2H-pyran-3,4,5-triyl triacetate], in assay [1], half-maximal inhibition (IC50) required 11.9 ± 0.5 µM, the inhibition at 0.01 µM was found to be 11%, the inhibition at 0.1 µM is 29% and the inhibition at 1 µM worked out at 47%. Also, in assay [1], the inhibition at 10 µM came out at 71% and the inhibition at 100 µM came out at 87%. The “Selectivity Index (AChE/BuChE)” value in assay [2] is given as 0.81. For the same molecule, in assay [3], the half-maximal inhibitory concentration (IC50) came to 14.6 ± 0.48 µM, the inhibition at 0.01 µM is 5.1%, the inhibition at 0.1 µM was 11% and the inhibition at 1 µM is 20%. In assay [3], the inhibition at 10 µM amounted to 41% and the inhibition at 100 µM stood at 75%.
With `OCCOCCn1cc(CSc2ccc(-c3ccccn3)nn2)nn1` [Compound 9], in assay [1], the IC50 was 0.647 µM and 0.64 µM; the inhibition at 0.01 µM worked out at 35%; the inhibition at 0.1 µM is 54%; the inhibition at 1 µM worked out at 70%. Also, in assay [1], the inhibition at 10 µM is 82% and the inhibition at 100 µM is 92%. Further, the “Selectivity Index (AChE/BuChE)” value in assay [2] was determined as 1.68. Moreover, in assay [3], the IC50 is 0.384 µM and 0.38 µM; the inhibition at 0.01 µM came to 22%; the inhibition at 0.1 µM was determined as 37%; the inhibition at 1 µM turned out to be 56%. In addition, in assay [3], the inhibition at 10 µM amounted to 80% and the inhibition at 100 µM was 93%.
Take `COc1ccc(-c2ccc(C(=O)NCCC3CCN(Cc4ccccc4)CC3)nn2)cc1` [V]: the IC50 in the assay with AChE was 0.11 µM.
Consider `CC(=O)OC[C@H]1O[C@@H](n2cc(CSc3ccc(-c4ccccn4)nn3)nn2)[C@H](OC(C)=O)[C@@H]1OC(C)=O` [Compound 6, (2R,3R,4R,5R)-2-(Acetoxymethyl)-5-(4-(((6-(pyridin-2-yl)pyridazin-3-yl)thio)methyl)-1H-1,2,3-triazol-1-yl)tetrahydrofuran-3,4-diyl diacetate], for which, in assay [1], inhibition was half-maximal at 9.15 µM (IC50), the inhibition at 0.01 µM turned out to be 9%, the inhibition at 0.1 µM came to 29% and the inhibition at 1 µM was 55%. In assay [1], the inhibition at 10 µM is 73% and the inhibition at 100 µM was determined as 88%. In assay [2], the “IC50 against acetylcholinesterase (AChE)” value was “moderate inhibition” and the “Selectivity Index (AChE/BuChE)” value is recorded as 0.29. In assay [3], the IC50 is 32 ± 1.05 µM, the inhibition at 0.01 µM worked out at 4%, the inhibition at 0.1 µM was 8.1% and the inhibition at 1 µM amounted to 19%. For the same molecule, in assay [3], the inhibition at 10 µM was determined as 33% and the inhibition at 100 µM amounted to 69%.
For `NCCn1cc(CSc2ccc(-c3ccccn3)nn2)nn1` [Compound 11, 2-(4-(((6-(Pyridin-2-yl)pyridazin-3-yl)thio)methyl)-1H-1,2,3-triazol-1-yl)ethan-1-amine], in assay [1], the IC50 was 14.6 ± 0.61 µM, the inhibition at 0.01 µM was 7.5%, the inhibition at 0.1 µM worked out at 26% and the inhibition at 1 µM was 53%. Moreover, in assay [1], the inhibition at 10 µM is 76% and the inhibition at 100 µM came out at 90%. In assay [2], the “Selectivity Index (AChE/BuChE)” value came out at 0.34. For the same molecule, in assay [3], half-maximal inhibition (IC50) was put at 42.9 ± 1.52 µM, the inhibition at 0.01 µM was -8.1%, the inhibition at 0.1 µM stood at 7.5% and the inhibition at 1 µM came out at 12%. Also, in assay [3], the inhibition at 10 µM is 33% and the inhibition at 100 µM was determined as 71%.
Consider `CCN(C)C(=O)Oc1cccc([C@H](C)N(C)C)c1` [Rivastigmine, rivastigmine, reference compound], for which, in assay [3], the inhibition at 0.01 µM is 0.7%, the inhibition at 0.1 µM turned out to be 3.2%, the inhibition at 1 µM amounted to 7% and the inhibition at 10 µM amounted to 38%. For the same molecule, in assay [3], the inhibition at 100 µM is 80%.
On to `CC(=O)OC1COC(n2cc(CSc3ccc(-c4ccccn4)nn3)nn2)C(OC(C)=O)C1OC(C)=O` (centres unmarked) [Compound 5], for which, in assay [1], the IC50 was 0.266 µM and 0.26 µM; the inhibition at 0.01 µM turned out to be 42%; the inhibition at 0.1 µM worked out at 61%; the inhibition at 1 µM is 71%. Moreover, in assay [1], the inhibition at 10 µM was found to be 83% and the inhibition at 100 µM was found to be 94%. For the same molecule, the “Selectivity Index (AChE/BuChE)” value in assay [2] was 1.41. In assay [3], the IC50 was 0.189 µM and 0.18 µM; the inhibition at 0.01 µM was 25%; the inhibition at 0.1 µM was 48%; the inhibition at 1 µM is 67%. In addition, in assay [3], the inhibition at 10 µM was determined as 78% and the inhibition at 100 µM came to 91%.
Consider `CC(=O)OCC1OC(n2cc(CSc3ccc(-c4ccccn4)nn3)nn2)C(OC(C)=O)C(OC(C)=O)C1OC(C)=O` [Compound 3, (2R,3R,4S,5R,6R)-2-(Acetoxymethyl)-6-(4-(((6-(pyridin-2-yl)pyridazin-3-yl)thio)methyl)-1H-1,2,3-triazol-1-yl)tetrahydro-2H-pyran-3,4,5-triyltriacetate], for which, in assay [1], the IC50 is 8.71 µM and 8.7 µM; the inhibition at 0.01 µM is 7.4%; the inhibition at 0.1 µM is 23%; the inhibition at 1 µM amounted to 43%. Also, in assay [1], the inhibition at 10 µM is 72% and the inhibition at 100 µM is 88%. In addition, in assay [2], the “IC50 against acetylcholinesterase (AChE)” value is reported as “moderate inhibition” and the “Selectivity Index (AChE/BuChE)” value was 29.32. Besides, in assay [3], the IC50 was 0.297 µM and 0.29 µM; the inhibition at 0.01 µM is 25%; the inhibition at 0.1 µM was 39%; the inhibition at 1 µM stood at 61%. In assay [3], the inhibition at 10 µM worked out at 79% and the inhibition at 100 µM was found to be 93%.
On to `OC[C@H]1O[C@@H](n2cc(CSc3ccc(-c4ccccn4)nn3)nn2)[C@H](O)[C@@H]1O` [Compound 8, (2R,3S,4R,5R)-2-(Hydroxymethyl)-5-(4-(((6-(pyridin-2-yl)pyridazin-3-yl)thio)methyl)-1H-1,2,3-triazol-1-yl)tetrahydrofuran-3,4-diol], for which, in assay [1], half-maximal inhibition (IC50) was put at 0.64 ± 0.02 µM, the inhibition at 0.01 µM stood at 26%, the inhibition at 0.1 µM is 43% and the inhibition at 1 µM was determined as 62%. Besides, in assay [1], the inhibition at 10 µM is 88% and the inhibition at 100 µM was 93%. Further, in assay [2], the “Selectivity Index (AChE/BuChE)” value worked out at 0.12. For the same molecule, in assay [3], it took 5.35 ± 0.17 µM to reach half-maximal inhibition (IC50), the inhibition at 0.01 µM came to 5.9%, the inhibition at 0.1 µM came to 13% and the inhibition at 1 µM came to 22%. In assay [3], the inhibition at 10 µM was found to be 55% and the inhibition at 100 µM was determined as 82%.
With `CC(=O)OCC1O[C@@H](n2cc(CNc3c4c(nc5ccccc35)CCCC4)nn2)C(OC(C)=O)C(OC(C)=O)C1OC(C)=O` (some centres unmarked) [VI], in the assay on AChE, the IC50 was 4.89 µM.
On to `Cc1ccc(-c2ccc(=O)n(CCc3n[nH]c(=S)n3-c3ccc(OC(F)(F)F)cc3)n2)cc1` [VII], for which the IC50 in the assay on AChE was 0.049 µM.
Take `OCCn1cc(CSc2ccc(-c3ccccn3)nn2)nn1` [Compound 10, 2-(4-(((6-(Pyridin-2-yl)pyridazin-3-yl)thio)methyl)-1H-1,2,3-triazol-1-yl)ethan-1-ol]: in assay [1], the IC50 stood at 1.84 ± 0.07 µM, the inhibition at 0.01 µM came out at 24%, the inhibition at 0.1 µM stood at 40% and the inhibition at 1 µM stood at 68%. Further, in assay [1], the inhibition at 10 µM was found to be 83% and the inhibition at 100 µM came out at 90%. In addition, the “Selectivity Index (AChE/BuChE)” value in assay [2] was 0.30. For the same molecule, in assay [3], the IC50 amounted to 6.06 ± 0.2 µM, the inhibition at 0.01 µM was 5.6%, the inhibition at 0.1 µM worked out at 13% and the inhibition at 1 µM was 31%. Also, in assay [3], the inhibition at 10 µM is 51% and the inhibition at 100 µM is 78%.
On to `COc1cc2c(cc1OC)C(=O)C(CC1CCN(Cc3ccccc3)CC1)C2` (centres unmarked) [Donepezil, donepezil, reference compound], for which, in assay [3], the inhibition at 0.01 µM was determined as 16%, the inhibition at 0.1 µM came out at 32%, the inhibition at 1 µM was 65% and the inhibition at 10 µM was determined as 84%. Moreover, in assay [3], the inhibition at 100 µM turned out to be 94%.
